Results reported in publication PMC13104650 (Acta Pharmaceutica Sinica. B, 2025).

Target: T1, TXNRD1 (cytosolic thioredoxin reductase 1) (Rattus norvegicus, UniProt O89049)
T1 sequence (O89049 1-499): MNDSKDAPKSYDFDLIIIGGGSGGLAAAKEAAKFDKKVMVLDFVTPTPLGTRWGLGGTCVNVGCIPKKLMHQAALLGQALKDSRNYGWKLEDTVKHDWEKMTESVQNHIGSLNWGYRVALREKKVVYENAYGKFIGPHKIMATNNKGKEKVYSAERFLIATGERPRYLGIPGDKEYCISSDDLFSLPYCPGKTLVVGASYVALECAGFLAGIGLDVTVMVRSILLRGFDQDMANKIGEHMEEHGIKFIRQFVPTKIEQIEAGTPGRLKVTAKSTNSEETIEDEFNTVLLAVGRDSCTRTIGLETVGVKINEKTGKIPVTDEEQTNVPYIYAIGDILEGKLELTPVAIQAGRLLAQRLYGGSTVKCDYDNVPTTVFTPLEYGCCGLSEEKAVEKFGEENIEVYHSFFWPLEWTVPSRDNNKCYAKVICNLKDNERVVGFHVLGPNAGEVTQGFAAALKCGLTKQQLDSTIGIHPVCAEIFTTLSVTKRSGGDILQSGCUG
Experiment: ITC
Format: binding

With `C=C1C(=O)O[C@@H]2C[C@@]3(C)CCCC(=C)[C@@H]3C[C@H]12` [IAL, Isoalantolactone] the Kd was 83.9 nM.
